This is an account of results in patent USRE39608E1, “Substituted benzimidazoles and their use as PARP inhibitors” (Abbott GmbH & Co. KG, priority 1998, dated 2007).

Where a name gives a salt, the structure may show the parent alone. Some results are limits rather than exact numbers.

For series [1] the following is noted: S. Cuzzocrea et al., Br. J. Pharmacol. 121 (1997); cited from earlier work.
Series [2] in a line: Determination of the water solubility. The class given is physicochemical. To be noted: pH of from 5 to 6 with sodium acetate solution. Here is the method: A compound to be measured was dissolved directly in a specified volume of water and the resulting solution was brought to a pH of from 5 to 6 with a sodium acetate solution so that the concentration of the active compound to be tested was reached. If the test substance was not present as a water-soluble salt, it was dissolved in a very small amount of dimethyl sulfoxide and then diluted with water (final concentration of dimethyl sulfoxide≦1%), after which the pH was adjusted here too. Here, Example 1 according to the invention gave a solubility of >0.5%.

`NC(=O)c1cccc(N)c1` [3-aminobenzamide]: the “protective effects in a model for circulatory shock” value in series [1] is recorded as “protective effects”. `NC(=O)c1cccc2[nH]c(C3CCNCC3)nc12` [Example 1, 2-(Piperidin-4-yl)benzimidazole-4-carboxamide.2 HCl] yielded a solubility in series [2] of more than 0.5%.
